Data published in patent US7253285B2, “Thiazolinone 4-monosubstituted quinolines” (Hoffmann-La Roche Inc., priority 2004, dated 2007).
Where a name gives a salt, the structure may show the parent alone.

Target: T1, recombinant human CDK1/Cyclin B complex (Homo sapiens, UniProt P06493)
T1 construct: made in house; host or cells: High Five insect cells (baculovirus) for CDK1/GST-cyclin B; E. coli M15 for the Rb substrate
Test: CDK1/Cyclin B kinase assay (FlashPlate or HTRF)
Type: biochemical
Conditions: Rb protein substrate, Ki=IC50/(1+[S]/Km)
Protocol: To determine inhibition of CDK1 activity, either FlashPlate™ (NEN™-Life Science Products) assay or HTRF assay was performed. Both types of kinase assays were carried out using recombinant human CDK1/Cyclin B complex. GST-cyclinB (GST-cycB) and CDK1 cDNA clones in baculovirus vectors were provided by Dr. W. Harper at the Baylor College of Medicine, Houston, Tex. Proteins were co-expressed in High Five™ insect cells and the complex was purified on glutathione Sepharose resin (Pharmacia, Piscataway, N.J.) as previously described (Harper, J. W. et al. Cell 1993, 75, 805-816). A 6×-Histidine tagged truncated form of retinoblastoma (Rb) protein (amino acid 386-928) was used as the substrate for the CDK1/Cyclin B assay (the expression plasmid was provided by Dr. Veronica Sullivan, Department of Molecular Virology, Roche Research Centre, Welwyn Garden City, United Kingdom). The Rb protein is a natural substrate for phosphorylation by CDK1 (see Herwig and Strauss Eur. J. Biochem. Vol. 246 (1997) pp. 581-601 and the references cited therein). The expression of the 62 Kd protein was under the control of an IPTG inducible promoter in an M15 E. coli strain. Cells were lysed by sonication and purification was carried out by binding lysates at pH 8.0 to a Ni-chelated agarose column pretreated with 1 mM imidazole. The resin was then washed several times with incrementally decreasing pH buffers to pH 6.0, and eluted with 500 mM imidazole. Eluted protein was dialysed against 20 mM HEPES pH 7.5, 30% glycerol, 200 mM NaCl, and 1 mM DTT. Purified Rb fusion protein stocks were quantitated for protein concentration, aliquoted, and stored at −70° C.
For the FlashPlate kinase assay, 96-well FlashPlates were coated with Rb protein at 10 μg/ml, using 100 μl per well. Plates were incubated at 4° C. overnight or at room temperature for 3 hours on a shaker. To control for nonspecific phosphorylation, one row of wells was coated with 100 μl/well coating buffer (20 mM HEPES, 0.2 M NaCl). Plates were then washed twice with wash buffer (0.01% Tween 20 in phosphate-buffered saline). Compounds to be tested (“test compounds”) were added to the wells at 5× final concentration. Reactions were initiated by immediate addition of 40 μl reaction mix (25 mM HEPES, 20 mM MgCl2, 0.002% Tween 20, 2 mM DTT, 1 μM ATP, 4 nM ^33P-ATP) and a sufficient amount of enzyme to give counts that were at least 10-fold above background. Plates were incubated at room temperature on a shaker for 30 minutes. Plates were washed four times with the wash buffer, sealed, and counted on the TopCount scintillation counter (Packard Instrument Co., Downers Grove, Ill.]. The percent inhibition of Rb phosphorylation, which is a measure of the inhibition of CDK activity, was determined according to the following formula:
[formula] where “test compound” refers to the average counts per minute of the test duplicates, “nonspecific” refers to the average counts per minute when no CDK1/Cyclin B, etc., was added, and “total” refers to the average counts per minute when no compound was added. The IC50 value is the concentration of test compound that reduces by 50% the protein-kinase induced incorporation of the radiolabel under the test conditions described. The value of the inhibitor constant Ki is calculated by the following: Ki=IC50/(1+[S]/Km), where [S] is the ATP concentration and Km is Michaelis constant.
The Homogeneous Time Resolved Fluorescence (HTRF) kinase assay was carried out in 96-well polypropylene plates (BD Biosciences, Bedford, Mass.). Test compounds were first dissolved in DMSO, and then diluted in kinase assay buffer 1 (25 mM HEPES, pH7.0, 8 mM MgCl2, 1.5 mM DTT, and 162 μM ATP) with DMSO concentration at 15%. The CDK1/Cyclin B enzyme was diluted in kinase assay buffer 2 (25 mM HEPES, pH 7.0, 8 mM MgCl2, 0.003% Tween 20, 0.045% BSA, 1.5 mM DTT, and 0.338 μM Rb protein). […]

T1 sequence (P06493 whole entry): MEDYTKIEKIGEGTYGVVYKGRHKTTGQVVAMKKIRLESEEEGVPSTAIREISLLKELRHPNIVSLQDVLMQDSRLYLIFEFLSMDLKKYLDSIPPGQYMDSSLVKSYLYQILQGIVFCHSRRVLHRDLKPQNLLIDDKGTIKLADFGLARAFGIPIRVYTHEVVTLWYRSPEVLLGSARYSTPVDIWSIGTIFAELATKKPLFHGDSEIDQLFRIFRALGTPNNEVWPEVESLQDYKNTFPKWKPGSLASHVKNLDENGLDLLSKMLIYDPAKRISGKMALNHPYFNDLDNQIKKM
T1 sequence (P14635 whole entry partner): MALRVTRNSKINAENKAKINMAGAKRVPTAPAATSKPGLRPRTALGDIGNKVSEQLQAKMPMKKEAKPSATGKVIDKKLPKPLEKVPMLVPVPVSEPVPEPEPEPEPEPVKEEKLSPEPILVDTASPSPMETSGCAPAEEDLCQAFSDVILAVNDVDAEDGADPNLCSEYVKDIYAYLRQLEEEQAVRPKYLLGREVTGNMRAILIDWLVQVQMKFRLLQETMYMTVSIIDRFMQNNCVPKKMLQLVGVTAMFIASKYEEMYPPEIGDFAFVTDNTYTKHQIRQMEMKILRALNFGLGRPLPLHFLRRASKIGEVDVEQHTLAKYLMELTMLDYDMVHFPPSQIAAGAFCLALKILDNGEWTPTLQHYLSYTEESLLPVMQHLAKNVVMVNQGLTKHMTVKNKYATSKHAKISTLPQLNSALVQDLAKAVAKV

Row | SMILES | Ki
1 | O=C1N=C(NCc2cccs2)S/C1=C\c1ccc2nccc(N3CCOCC3)c2c1 [Example 15, 5-(4-Morpholin-4-yl-quinolin-6-ylmeth-(Z)-ylidine)-2-[(thiophen-2-ylmethyl)-amino]-thiazol-4-one] | 210 nM
2 | COCCOc1ccnc2ccc(/C=C3\SC(N)=NC3=O)cc12 [Example 20, 2-Amino-5-[4-(2-methoxy-ethoxy)-quinolin-6-ylmeth-(Z)-ylidine]-thiazol-4-one as trifluoroacetate salt] | 32 nM
3 | NC1=NC(=O)/C(=C/c2ccc3nccc(Oc4ccccc4)c3c2)S1 [Example 25, 2-Amino-5-(4-phenoxy-quinolin-6-ylmeth-(Z)-ylidine)-thiazol-4-one] | 340 nM
4 | CCOc1ccnc2ccc(/C=C3\SC(NCc4cnc(C)cn4)=NC3=O)cc12 [Example 30, 2-[(5-Methyl-pyrazin-2-ylmethyl)-amino]-5-(4-ethoxy-quinolin-6-ylmeth-(Z)-ylidine)-thiazol-4-one] | 281 nM
5 | CCOc1ccnc2ccc(/C=C3\SC(NCCc4cccc(F)c4)=NC3=O)cc12 [Example 40] | 13 nM

Second part, the molecule after the results:

Row | Ki | SMILES
6 | 39 nM | CCOc1ccnc2ccc(/C=C3\SC(N[C@H]4C[C@@H]4c4ccccc4)=NC3=O)cc12 [Example 5, 5-(4-Ethoxy-quinolin-6-ylmeth-(Z)-ylidine)-2-((1R,2S)-2-phenyl-cyclopropylamino)-thiazol-4-one]
7 | 1190 nM | O=C1N=C(N[C@H]2C[C@@H]2c2ccccc2)S/C1=C\c1ccc2nccc(OCC3CCCCC3)c2c1 [Example 10, 5-(4-Cyclohexylmethoxy-quinolin-6-ylmeth-(Z)-ylidine)-2-((1R,2S)-2-phenyl-cyclopropylamino)-thiazol-4-one]
8 | 37.2 nM | CCSc1ccnc2ccc(/C=C3\SC(N[C@H]4C[C@@H]4c4ccccc4)=NC3=O)cc12 [Example 35, 5-(4-Ethylsulfanyl-quinolin-6-ylmeth-(Z)-ylidine)-2-((1R,2S)-2-phenyl-cyclopropylamino)-thiazol-4-one]

Tested on: not given
Test: not given
Conditions: not given

Row | SMILES | melting point
9 | CCOc1ccnc2ccc(/C=C3\SC(NCc4cccs4)=NC3=O)cc12 [Example 4, 5-(4-Ethoxy-quinolin-6-ylmeth-(Z)-ylidine)-2-[(thiophen-2-ylmethyl)-amino]-thiazol-4-one] | 226 to 228 °C
10 | O=C1N=C(NCc2cccs2)S/C1=C\c1ccc2nccc(Oc3ccccc3)c2c1 [Example 24, 5-(4-Phenoxy-quinolin-6-ylmeth-(Z)-ylidine)-2-[(thiophen-2-ylmethyl)-amino]-thiazol-4-one] | 239 to 240.5 °C

More lines, now with the values ahead:

Row | melting point | SMILES
11 | 258 to 262 °C | COc1ccnc2ccc(/C=C3\SC(NCc4cccs4)=NC3=O)cc12 [Example 1, 5-(4-Methoxy-quinolin-6-ylmeth-(Z)-ylidine)-2-[(thiophen-2-ylmethyl)-amino]-thiazol-4-one]
12 | 251 to 253 °C | COc1ccnc2ccc(/C=C3\SC(N[C@H]4C[C@@H]4c4ccccc4)=NC3=O)cc12 [Example 2, 5-(4-Methoxy-quinolin-6-ylmeth-(Z)-ylidine)-2-((1R,2S)-2-phenyl-cyclopropylamino)-thiazol-4-one]
13 | 266 to 268 °C | CCOc1ccnc2ccc(/C=C3\SC(N[C@H]4C[C@@H]4c4ccccc4)=NC3=O)cc12 [Example 5, 5-(4-Ethoxy-quinolin-6-ylmeth-(Z)-ylidine)-2-((1R,2S)-2-phenyl-cyclopropylamino)-thiazol-4-one]
14 | 223 to 227 °C | O=C1N=C(N[C@H]2C[C@@H]2c2ccccc2)S/C1=C\c1ccc2nccc(OCC3CCCCC3)c2c1 [Example 10, 5-(4-Cyclohexylmethoxy-quinolin-6-ylmeth-(Z)-ylidine)-2-((1R,2S)-2-phenyl-cyclopropylamino)-thiazol-4-one]
